Test results taken from patent US12065436B2, “Cardiac sarcomere inhibitors” (Cytokinetics, Inc., priority 2018, dated 2024).

Target: bovine cardiac myofibrils (full-length cardiac myosin ATPase in the native sarcomere) (Bos taurus (Bovine), UniProt Q9BE39)
Test: Skinned bovine cardiac myofibril ATPase assay (PK/LDH-coupled)
Assay type: biochemical
Details: Ca2+ activating to 75% of maximal rate; for CDMF75 IC15: concentration giving 15% inhibition; for IC50: read-out: CDMF75 IC50
Procedure: To evaluate the effect of compounds on the ATPase activity of full-length cardiac myosin in the context of the native sarcomere, skinned myofibril assays were performed. Bovine cardiac myofibrils were obtained by homogenizing bovine cardiac left ventricular tissue in the presence of a detergent such as triton X-100. Such treatment removes membranes and a majority of the soluble cytoplasmic proteins but leaves intact the cardiac sarcomeric acto-myosin apparatus. Myofibril preparations retain the ability to hydrolyze ATP in an Ca^2+ regulated manner. ATPase activities of such myofibril preparations in the presence and absence of compounds were assayed at Ca^2+ concentrations activating to a defined fraction of the maximal rate (i.e., 25%, 75%). Small molecule agents were assessed for their ability to inhibit the steady-state ATPase activity of bovine cardiac myofibrils using pyruvate kinase and lactate dehydrogenase (PK/LDH)-coupled enzyme system. This assay regenerates myosin-produced ADP into ATP by oxidizing NADH, producing an absorbance change at 340 nm. Prior to testing small molecule agents, the bovine cardiac myofibrils were assessed for their calcium responsiveness and the calcium concentration that achieves either a 50% (pCa50) or 75% (pCa75) activation of the myofibril system was chosen as the final condition for assessing the inhibitory activity of the small molecule agents. All enzymatic activity was measured in a buffered solution containing 12 mM PIPES (piperazine-N,N′-bis(2-ethanesulfonic acid), 2 mM magnesium chloride at pH 6.8 (PM 12 buffer). Final assay conditions were 1 mg/mL of bovine cardiac myofibrils, 4 U/mL pyruvate kinase, 6 U/mL lactate dehydrogenase, 50 μM ATP, 0.1 mg/mL BSA (bovine serum albumin), 10 ppm antifoam, 1 mM DTT, 0.5 mM NADH, 1.5 mM PEP, 0.6 mM EGTA, and an amount of CaCl2) sufficient to achieve either 50% or 75% activation of the myofibril ATPase activity.

bovine cardiac myofibrils (full-length cardiac myosin ATPase in the native sarcomere), sequence (Q9BE39 whole entry): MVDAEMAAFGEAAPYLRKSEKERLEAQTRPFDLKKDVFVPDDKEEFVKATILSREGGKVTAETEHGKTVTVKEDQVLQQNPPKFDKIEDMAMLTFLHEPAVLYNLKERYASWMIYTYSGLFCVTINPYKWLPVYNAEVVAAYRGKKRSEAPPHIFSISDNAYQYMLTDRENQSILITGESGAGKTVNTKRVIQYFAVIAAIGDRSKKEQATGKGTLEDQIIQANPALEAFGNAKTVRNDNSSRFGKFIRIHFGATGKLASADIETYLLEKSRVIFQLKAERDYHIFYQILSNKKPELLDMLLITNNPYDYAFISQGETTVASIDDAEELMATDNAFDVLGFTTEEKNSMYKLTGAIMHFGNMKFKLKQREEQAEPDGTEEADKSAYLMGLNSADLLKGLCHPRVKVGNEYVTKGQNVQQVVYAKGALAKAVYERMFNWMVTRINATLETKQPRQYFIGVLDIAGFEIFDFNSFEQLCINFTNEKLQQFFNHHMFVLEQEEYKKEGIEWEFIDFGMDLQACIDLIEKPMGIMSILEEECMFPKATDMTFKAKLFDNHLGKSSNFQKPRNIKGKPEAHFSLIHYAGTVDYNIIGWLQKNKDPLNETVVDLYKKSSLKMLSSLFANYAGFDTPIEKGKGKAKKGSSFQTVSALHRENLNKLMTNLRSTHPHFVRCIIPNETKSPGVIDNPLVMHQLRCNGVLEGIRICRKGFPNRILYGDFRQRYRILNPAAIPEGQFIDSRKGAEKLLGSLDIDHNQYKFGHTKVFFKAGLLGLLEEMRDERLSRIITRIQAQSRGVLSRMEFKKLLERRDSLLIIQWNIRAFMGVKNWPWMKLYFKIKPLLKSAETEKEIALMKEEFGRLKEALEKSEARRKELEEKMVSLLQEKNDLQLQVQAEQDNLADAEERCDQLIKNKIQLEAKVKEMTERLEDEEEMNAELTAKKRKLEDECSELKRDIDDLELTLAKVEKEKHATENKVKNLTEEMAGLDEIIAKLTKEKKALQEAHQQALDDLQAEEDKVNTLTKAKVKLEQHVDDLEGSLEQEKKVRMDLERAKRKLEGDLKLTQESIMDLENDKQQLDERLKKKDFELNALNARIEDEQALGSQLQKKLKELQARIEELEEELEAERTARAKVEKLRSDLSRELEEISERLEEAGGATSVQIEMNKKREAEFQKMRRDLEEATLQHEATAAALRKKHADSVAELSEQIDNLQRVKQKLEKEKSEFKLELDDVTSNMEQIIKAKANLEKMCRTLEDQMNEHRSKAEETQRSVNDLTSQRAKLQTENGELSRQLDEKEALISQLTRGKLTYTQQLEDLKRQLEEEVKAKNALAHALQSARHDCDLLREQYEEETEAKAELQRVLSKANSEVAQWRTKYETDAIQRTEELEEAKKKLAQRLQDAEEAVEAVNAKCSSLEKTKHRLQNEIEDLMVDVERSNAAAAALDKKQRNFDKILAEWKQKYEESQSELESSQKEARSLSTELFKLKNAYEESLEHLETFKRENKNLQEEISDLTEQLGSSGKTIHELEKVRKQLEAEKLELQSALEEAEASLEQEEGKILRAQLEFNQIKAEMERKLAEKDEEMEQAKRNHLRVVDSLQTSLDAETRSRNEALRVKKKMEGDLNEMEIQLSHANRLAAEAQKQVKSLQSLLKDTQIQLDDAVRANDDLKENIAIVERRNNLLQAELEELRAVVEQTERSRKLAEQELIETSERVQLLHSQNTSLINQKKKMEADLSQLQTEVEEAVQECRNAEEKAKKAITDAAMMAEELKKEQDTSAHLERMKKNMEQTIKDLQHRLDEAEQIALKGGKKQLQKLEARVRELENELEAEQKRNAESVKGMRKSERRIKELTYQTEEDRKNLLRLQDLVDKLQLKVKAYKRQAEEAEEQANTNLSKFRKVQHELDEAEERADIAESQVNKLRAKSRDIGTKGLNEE
bovine cardiac myofibrils (full-length cardiac myosin ATPase in the native sarcomere), sequence (P85100 whole entry partner): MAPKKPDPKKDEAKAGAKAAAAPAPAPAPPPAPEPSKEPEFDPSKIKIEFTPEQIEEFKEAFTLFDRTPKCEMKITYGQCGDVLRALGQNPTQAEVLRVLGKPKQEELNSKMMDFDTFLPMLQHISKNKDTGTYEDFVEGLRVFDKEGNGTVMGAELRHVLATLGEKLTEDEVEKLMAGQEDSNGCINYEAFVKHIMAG
bovine cardiac myofibrils (full-length cardiac myosin ATPase in the native sarcomere), sequence (Q3SZE5 whole entry partner): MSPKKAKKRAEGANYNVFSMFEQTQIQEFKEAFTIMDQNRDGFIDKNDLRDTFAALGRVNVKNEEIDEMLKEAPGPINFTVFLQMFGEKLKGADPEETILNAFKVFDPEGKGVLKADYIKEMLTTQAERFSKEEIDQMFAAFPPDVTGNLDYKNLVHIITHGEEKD

Row | SMILES | CDMF75 IC15 [µM] | IC50 [µM]
1 | Cc1nc(-c2ccc3c(c2)CCC3NC(=O)c2oc(C)nc2C)no1 (stereo not shown) [Compound 53, 2,4-dimethyl-N-(5-(5-methyl-1,2,4-oxadiazol-3-yl)-2,3-dihydro-1H-inden-1-yl)oxazole-5-carboxamide] | 2.5 | 8.8
2 | Cc1nc(-c2ccc3c(c2)CCC3NC(=O)c2cnn(C)c2C)no1 (stereo not shown) [Compound 54, 1,5-dimethyl-N-(5-(5-methyl-1,2,4-oxadiazol-3-yl)-2,3-dihydro-1H-inden-1-yl)-1H-pyrazole-4-carboxamide] | 2.2 | 7.8
3 | CCn1nccc1C(=O)NC1CCc2cc(-c3noc(C)n3)ccc21 (stereo not shown) [Compound 56, 1-ethyl-N-(5-(5-methyl-1,2,4-oxadiazol-3-yl)-2,3-dihydro-1H-inden-1-yl)-1H-pyrazole-5-carboxamide] | 2.5 | 8.5
4 | Cc1nc(-c2ccc3c(c2)CCC3NC(=O)c2cnn3c2CCC3)no1 (stereo not shown) [Compound 57, N-(5-(5-methyl-1,2,4-oxadiazol-3-yl)-2,3-dihydro-1H-inden-1-yl)-5,6-dihydro-4H-pyrrolo[1,2-b]pyrazole-3-carboxamide] | 2.8 | 8.9
5 | Cc1cccnc1C(=O)NC1CCc2cc(-c3noc(C(F)F)n3)ccc21 (stereo not shown) [Compound 58, N-(5-(5-(difluoromethyl)-1,2,4-oxadiazol-3-yl)-2,3-dihydro-1H-inden-1-yl)-3-methylpicolinamide] | 4.8 | 21
6 | Cc1nc(-c2ccc3c(c2)CCC3NC(=O)c2ncccc2C)no1 (stereo not shown) [Compound 59, 3-methyl-N-(5-(5-methyl-1,2,4-oxadiazol-3-yl)-2,3-dihydro-1H-inden-1-yl)picolinamide] | 5.7 | 28.2
7 | Cc1csc(C(=O)NC2CCc3cc(-c4noc(C(F)F)n4)ccc32)n1 (stereo not shown) [Compound 60, N-(5-(5-(difluoromethyl)-1,2,4-oxadiazol-3-yl)-2,3-dihydro-1H-inden-1-yl)-4-methylthiazole-2-carboxamide] | 2.3 | 8.3
8 | Cc1nc(-c2ccc3c(c2)CCC3NC(=O)Nc2cccnc2)no1 (stereo not shown) [Compound 62, 1-(5-(5-methyl-1,2,4-oxadiazol-3-yl)-2,3-dihydro-1H-inden-1-yl)-3-(pyridin-3-yl)urea] | 1.5 | 8.7
9 | Cc1csc(C(=O)NC2CCc3cc(-c4noc(C)n4)ccc32)n1 (stereo not shown) [Compound 63, 4-methyl-N-(5-(5-methyl-1,2,4-oxadiazol-3-yl)-2,3-dihydro-1H-inden-1-yl)thiazole-2-carboxamide] | 2.3 | 10.1
10 | CC(=O)OCc1nc(-c2ccc3c(c2)CCC3NC(=O)c2cn(C)nc2C)no1 (stereo not shown) [Compound 74, (3-(1-(1,3-dimethyl-1H-pyrazole-4-carboxamido)-2,3-dihydro-1H-inden-5-yl)-1,2,4-oxadiazol-5-yl)methyl acetate] | 22.3 | > 39.2
11 | CC(=O)O[C@@H](C)c1nc(-c2ccc3c(c2)CCC3NC(=O)c2cn(C)nc2C)no1 (stereo partly drawn) [Compound 77, (1S)-1-(3-(1-(1,3-dimethyl-1H-pyrazole-4-carboxamido)-2,3-dihydro-1H-inden-5-yl)-1,2,4-oxadiazol-5-yl)ethyl acetate] | 4.9 | 26
12 | COC(=O)c1nc(-c2ccc3c(c2)CCC3NC(=O)c2cn(C)nc2C)no1 (stereo not shown) [Compound 78, methyl 3-(1-(1,3-dimethyl-1H-pyrazole-4-carboxamido)-2,3-dihydro-1H-inden-5-yl)-1,2,4-oxadiazole-5-carboxylate] | 2.6 | 13.6
13 | Cc1nn(C)cc1C(=O)NC1CCc2cc(-c3noc(CO)n3)ccc21 (stereo not shown) [Compound 79, N-(5-(5-(hydroxymethyl)-1,2,4-oxadiazol-3-yl)-2,3-dihydro-1H-inden-1-yl)-1,3-dimethyl-1H-pyrazole-4-carboxamide] | 4.6 | 22.7
14 | Cc1nn(C)cc1C(=O)NC1CCc2cc(-c3noc([C@H](C)O)n3)ccc21 (stereo partly drawn) [Compound 80, N-(5-(5-((S)-1-hydroxyethyl)-1,2,4-oxadiazol-3-yl)-2,3-dihydro-1H-inden-1-yl)-1,3-dimethyl-1H-pyrazole-4-carboxamide] | 27.5 | > 39.2

Stronger by IC50, values ahead:

Row | CDMF75 IC15 [µM] | IC50 [µM] | SMILES
15 | 2.0 | 6.8 | Cc1nc(-c2ccc3c(c2)CCC3NC(=O)c2cn(C)nc2C)no1 (stereo not shown) [Compound 55, 1,3-dimethyl-N-(5-(5-methyl-1,2,4-oxadiazol-3-yl)-2,3-dihydro-1H-inden-1-yl)-1H-pyrazole-4-carboxamide]
16 | 1.6 | 6.1 | Cc1ccnc(C(=O)NC2CCc3cc(-c4noc(C)n4)ccc32)c1 (stereo not shown) [Compound 68, 4-methyl-N-(5-(5-methyl-1,2,4-oxadiazol-3-yl)-2,3-dihydro-1H-inden-1-yl)picolinamide]
17 | 1.7 | 6.1 | COCc1nc(-c2ccc3c(c2)CCC3NC(=O)c2cn(C)nc2C)no1 (stereo not shown) [Compound 76, N-(5-(5-(methoxymethyl)-1,2,4-oxadiazol-3-yl)-2,3-dihydro-1H-inden-1-yl)-1,3-dimethyl-1H-pyrazole-4-carboxamide]
18 | 1.2 | 5.1 | Cc1nc(-c2ccc3c(c2)CCC3NC(=O)c2nnn(C)n2)no1 (stereo not shown) [Compound 64, 2-methyl-N-(5-(5-methyl-1,2,4-oxadiazol-3-yl)-2,3-dihydro-1H-inden-1-yl)-2H-tetrazole-5-carboxamide]
19 | 1.6 | 4.9 | Cc1nc(-c2ccc3c(c2)CCC3NC(=O)c2ocnc2C2CC2)no1 (stereo not shown) [Compound 52, 4-cyclopropyl-N-(5-(5-methyl-1,2,4-oxadiazol-3-yl)-2,3-dihydro-1H-inden-1-yl)oxazole-5-carboxamide]
20 | 1.4 | 4.8 | Cc1nc(-c2ccc3c(c2)CCC3NC(=O)c2c[nH]nc2C)no1 (stereo not shown) [Compound 70, 3-methyl-N-(5-(5-methyl-1,2,4-oxadiazol-3-yl)-2,3-dihydro-1H-inden-1-yl)-1H-pyrazole-4-carboxamide]
21 | 0.9 | 4.7 | Cc1ccnc(C(=O)NC2CCc3cc(-c4noc(C(F)F)n4)ccc32)c1 (stereo not shown) [Compound 67, N-(5-(5-(difluoromethyl)-1,2,4-oxadiazol-3-yl)-2,3-dihydro-1H-inden-1-yl)-4-methylpicolinamide]
22 | 1.2 | 4.5 | Cc1nc(-c2ccc3c(c2)CC[C@H]3NC(=O)c2cnn(C)c2)no1 [Compound 66, (R)-1-methyl-N-(5-(5-methyl-1,2,4-oxadiazol-3-yl)-2,3-dihydro-1H-inden-1-yl)-1H-pyrazole-4-carboxamide]
23 | 1.1 | 3.5 | Cc1ncc(C(=O)NC2CCc3cc(-c4noc(C(F)F)n4)ccc32)n1C (stereo not shown) [Compound 61, N-(5-(5-(difluoromethyl)-1,2,4-oxadiazol-3-yl)-2,3-dihydro-1H-inden-1-yl)-1,2-dimethyl-1H-imidazole-5-carboxamide]
24 | 0.9 | 3.1 | Cc1nn(C)cc1C(=O)NC1CCc2cc(-c3noc(C(C)C)n3)ccc21 (stereo not shown) [Compound 75, N-(5-(5-isopropyl-1,2,4-oxadiazol-3-yl)-2,3-dihydro-1H-inden-1-yl)-1,3-dimethyl-1H-pyrazole-4-carboxamide]
25 | 0.8 | 3 | Cc1nc(-c2ccc3c(c2)CCC3NC(=O)c2ccnn2C)no1 (stereo not shown) [Compound 65, 1-methyl-N-(5-(5-methyl-1,2,4-oxadiazol-3-yl)-2,3-dihydro-1H-inden-1-yl)-1H-pyrazole-5-carboxamide]
26 | 0.7 | 2.5 | Cc1nn(C)cc1C(=O)NC1CCc2cc(-c3noc(C4CC4)n3)ccc21 (stereo not shown) [Compound 73, N-(5-(5-cyclopropyl-1,2,4-oxadiazol-3-yl)-2,3-dihydro-1H-inden-1-yl)-1,3-dimethyl-1H-pyrazole-4-carboxamide]
27 | 0.6 | 2.3 | Cc1n[nH]cc1C(=O)NC1CCc2cc(-c3noc(C(F)F)n3)ccc21 (stereo not shown) [Compound 69, N-(5-(5-(difluoromethyl)-1,2,4-oxadiazol-3-yl)-2,3-dihydro-1H-inden-1-yl)-3-methyl-1H-pyrazole-4-carboxamide]
28 | 0.4 | 1.2 | Cc1n[nH]cc1C(=O)N[C@@H]1CCc2cc(-c3noc(C(F)F)n3)ccc21 [Compound 71, (R)-N-(5-(5-(difluoromethyl)-1,2,4-oxadiazol-3-yl)-2,3-dihydro-1H-inden-1-yl)-3-methyl-1H-pyrazole-4-carboxamide]
29 | 0.3 | 1 | Cc1oncc1C(=O)N[C@@H]1CCc2cc(-c3noc(C(F)F)n3)ccc21 [Compound 72, (R)-N-(5-(5-(difluoromethyl)-1,2,4-oxadiazol-3-yl)-2,3-dihydro-1H-inden-1-yl)-5-methylisoxazole-4-carboxamide]
